Here are results for 13 compounds from patent US20260022142A1, “MACROCYCLIC IMMUNOMODULATORS” (Bristol-Myers Squibb Company, priority 2022, published 2026).

A word on the IC50: it is the point on the concentration scale where inhibition reaches its midpoint.

Numbered stars: 1 amine (or outer) side, 2 acyl side, 3 side chain; on linkers, the order of the positions; unused ones are H or OH. Bridge positions count the residues as written; N and C are the ends. Square brackets hold non-standard residues; d marks the D form. Peptide text beside a SMILES is read from it. * marks the point of attachment. ξ: configuration not given here. Bip = N[C@@H](Cc1ccc(-c2ccccc2)cc1)C(=O)O; Phe(3-Me) = Cc1cccc(C[C@H](N)C(=O)O)c1; γGlu = O=C(O)[C@H](CCC(=O)[*:2])N[*:1]; Cha = N[C@@H](CC1CCCCC1)C(=O)O; Thr(3ξ) = CC(O)[C@H](N)C(=O)O; Carboxymethyl = O=C(O)C*; Orn = NCCC[C@H](N)C(=O)O; Aun = NCCCCCCCCCCC(=O)O; Dab = NCC[C@H](N)C(=O)O; Dap = NC[C@H](N)C(=O)O; AEEA = NCCOCCOCC(=O)O

The target in the assay is T1, PD-1/PD-L1 interaction (PE-labeled human PD-L1-Ig binding to Jurkat cell line over-expressing human PD-1) (Homo sapiens, UniProt Q15116).
T1 construct: expressed in transfected cells; host or cells: Jurkat
T1 sequence (Q15116 25-288): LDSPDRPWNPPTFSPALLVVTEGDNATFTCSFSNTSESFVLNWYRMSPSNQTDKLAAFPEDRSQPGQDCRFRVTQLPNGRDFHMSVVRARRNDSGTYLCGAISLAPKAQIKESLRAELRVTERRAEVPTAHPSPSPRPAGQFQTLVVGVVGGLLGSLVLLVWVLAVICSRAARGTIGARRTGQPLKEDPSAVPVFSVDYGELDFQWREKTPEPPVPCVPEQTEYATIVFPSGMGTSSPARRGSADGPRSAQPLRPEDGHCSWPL
The experiment in a line: Jurkat-PD-1 Cell Binding High-Content Screening Assay (CBA). It counts as cell-based. The conditions noted are these: Jurkat cell line over-expressing human PD-1; PE-labeled PD-L1-Ig 20 nM final; read-out: Jurkat hPD1-PDL1 IC50. In a few lines: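 Binding of fluorescent PD-L1-Ig (20 nM final) to Jurkat-PD-1 cells was measured by automated imaging after 1 h, following a 2 h compound pre-treatment at 37° C.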
On to `CC(C)C[C@H]1NC(=O)[C@H](CCCN)NC(=O)[C@H](C(C)C)NC(=O)[C@H](Cc2ccc(-c3ccccc3)cc2)NC(=O)[C@H](C(C)C)NC(=O)[C@H](Cc2c[nH]c3ccccc23)NC(=O)[C@H](CC(=O)O)NC(=O)[C@H](Cc2ccc(OCC(=O)O)cc2)NC(=O)[C@H](C(C)O)NC(=O)CSC[C@@H](C(=O)N[C@@H](CCN)C(=O)NCCCCCCCCCCC(=O)O)NC(=O)[C@H](CN)NC(=O)[C@H](C(C)O)NC(=O)[C@H](CC2CCCCC2)NC(=O)[C@H](CCN)NC1=O` (stereo partly drawn) [Compound 3661] ({CH2CO}-[Thr(3ξ)]Y(Carboxymethyl)DWV[Bip]V[Orn][dL][Dab][Cha][Thr(3ξ)][Dap]C[Dab][Aun]-OH; thioether N-14), for which the IC50 is 35.8 nM.
With `CC(C)C[C@H]1NC(=O)[C@H](CCCN)NC(=O)[C@H](C(C)C)NC(=O)[C@H](Cc2ccc(-c3ccccc3)cc2)NC(=O)[C@H](C(C)C)NC(=O)[C@H](Cc2c[nH]c3ccccc23)NC(=O)[C@H](CC(=O)O)NC(=O)[C@H](Cc2ccc(OCC(=O)O)cc2)NC(=O)[C@H](C(C)O)NC(=O)CSC[C@@H](C(=O)N[C@@H](CCN)C(=O)NCCOCCOCC(=O)N[C@@H](CCC(=O)NCCCCCCCCCCC(=O)O)C(=O)O)NC(=O)[C@H](CN)NC(=O)[C@H](C(C)O)NC(=O)[C@H](CC2CCCCC2)NC(=O)[C@H](CCN)NC1=O` (stereo partly drawn) [Compound 3662] ({CH2CO}-[Thr(3ξ)]Y(Carboxymethyl)DWV[Bip]V[Orn][dL][Dab][Cha][Thr(3ξ)][Dap]C[Dab][AEEA][γGlu][Aun]-OH; thioether N-14), the IC50 was 15.1 nM.
As for `CC(C)C[C@H]1NC(=O)[C@H](CCCN)NC(=O)[C@H](C(C)C)NC(=O)[C@H](Cc2ccc(-c3ccccc3)cc2)NC(=O)[C@H](C(C)C)NC(=O)[C@H](Cc2c[nH]c3ccccc23)NC(=O)[C@H](CC(=O)O)NC(=O)[C@H](Cc2ccc(OCC(=O)O)cc2)NC(=O)[C@H](C(C)O)NC(=O)CSC[C@@H](C(=O)N[C@@H](CCN)C(=O)NCCOCCOCC(=O)N[C@@H](CCC(=O)NCCCCCCCCCCC(=O)O)C(=O)O)NC(=O)[C@H](CCCCN)NC(=O)[C@H](C(C)O)NC(=O)[C@H](CC2CCCCC2)NC(=O)[C@H](CCN)NC1=O` (stereo partly drawn) [Compound 3663] ({CH2CO}-[Thr(3ξ)]Y(Carboxymethyl)DWV[Bip]V[Orn][dL][Dab][Cha][Thr(3ξ)]KC[Dab][AEEA][γGlu][Aun]-OH; thioether N-14), the IC50 stood at 15.3 nM.
`CC(C)C[C@H]1NC(=O)[C@H](CCCN)NC(=O)[C@H](C(C)C)NC(=O)[C@H](Cc2ccc(-c3ccccc3)cc2)NC(=O)[C@H](C(C)C)NC(=O)[C@H](Cc2c[nH]c3ccccc23)NC(=O)[C@H](CC(=O)O)NC(=O)[C@H](Cc2ccc(OCC(=O)O)cc2)NC(=O)[C@H](C(C)O)NC(=O)CSC[C@@H](C(=O)N[C@@H](CCN)C(=O)NCCCCCCCCCCC(=O)O)NC(=O)[C@H](CO)NC(=O)[C@H](C(C)O)NC(=O)[C@H](CC2CCCCC2)NC(=O)[C@H](CCN)NC1=O` (stereo partly drawn) [Compound 3664] ({CH2CO}-[Thr(3ξ)]Y(Carboxymethyl)DWV[Bip]V[Orn][dL][Dab][Cha][Thr(3ξ)]SC[Dab][Aun]-OH; thioether N-14): the IC50 stood at 27.7 nM.
As for `CC(C)C[C@H]1NC(=O)[C@H](CCCN)NC(=O)[C@H](C(C)C)NC(=O)[C@H](Cc2ccc(-c3ccccc3)cc2)NC(=O)[C@H](C(C)C)NC(=O)[C@H](Cc2c[nH]c3ccccc23)NC(=O)[C@H](CC(=O)O)NC(=O)[C@H](Cc2ccc(OCC(=O)O)cc2)NC(=O)[C@H](C(C)O)NC(=O)CSC[C@@H](C(=O)N[C@@H](CCN)C(=O)NCCCCCCCCCCC(=O)O)NC(=O)[C@H](Cc2cnc[nH]2)NC(=O)[C@H](C(C)O)NC(=O)[C@H](CC2CCCCC2)NC(=O)[C@H](CCN)NC1=O` (stereo partly drawn) [Compound 3665] ({CH2CO}-[Thr(3ξ)]Y(Carboxymethyl)DWV[Bip]V[Orn][dL][Dab][Cha][Thr(3ξ)]HC[Dab][Aun]-OH; thioether N-14), the IC50 was 23.2 nM.
`CC(C)C[C@H]1NC(=O)[C@H](CCCN)NC(=O)[C@H](C(C)C)NC(=O)[C@H](Cc2ccc(-c3ccccc3)cc2)NC(=O)[C@H](C(C)C)NC(=O)[C@H](Cc2c[nH]c3ccccc23)NC(=O)[C@H](CC(=O)O)NC(=O)[C@H](Cc2ccc(OCC(=O)O)cc2)NC(=O)[C@H](C(C)O)NC(=O)CSC[C@@H](C(=O)N[C@@H](CCN)C(=O)NCCCCCCCCCCC(=O)O)NC(=O)[C@H](CO)NC(=O)[C@H](CCCCN)NC(=O)[C@H](CC2CCCCC2)NC(=O)[C@H](CCN)NC1=O` (stereo partly drawn) [Compound 3666] ({CH2CO}-[Thr(3ξ)]Y(Carboxymethyl)DWV[Bip]V[Orn][dL][Dab][Cha]KSC[Dab][Aun]-OH; thioether N-14): the IC50 came out at 32 nM.
With `CC(C)C[C@H]1NC(=O)[C@H](CCCN)NC(=O)[C@H](Cc2ccc(O)cc2)NC(=O)[C@H](Cc2ccc(-c3ccccc3)cc2)NC(=O)[C@H](C(C)C)NC(=O)[C@H](Cc2c[nH]c3ccccc23)NC(=O)[C@H](CC(=O)O)NC(=O)[C@H](Cc2ccc(OCC(=O)O)cc2)NC(=O)[C@H](C(C)O)NC(=O)CSC[C@@H](C(=O)N[C@@H](CCN)C(=O)NCCCCCCCCCCC(=O)O)NC(=O)[C@H](CN)NC(=O)[C@H](C(C)O)NC(=O)[C@H](CC2CCCCC2)NC(=O)[C@H](CCN)NC1=O` (stereo partly drawn) [Compound 3667] ({CH2CO}-[Thr(3ξ)]Y(Carboxymethyl)DWV[Bip]Y[Orn][dL][Dab][Cha][Thr(3ξ)][Dap]C[Dab][Aun]-OH; thioether N-14), the IC50 was 37.4 nM.
As for `CC(C)C[C@H]1NC(=O)[C@H](CCCN)NC(=O)[C@H](Cc2ccc(O)cc2)NC(=O)[C@H](Cc2ccc(-c3ccccc3)cc2)NC(=O)[C@H](C(C)C)NC(=O)[C@H](Cc2c[nH]c3ccccc23)NC(=O)[C@H](CC(=O)O)NC(=O)[C@H](Cc2ccc(OCC(=O)O)cc2)NC(=O)[C@H](C(C)O)NC(=O)CSC[C@@H](C(=O)N[C@@H](CCN)C(=O)NCCCCCCCCCCC(=O)O)NC(=O)[C@H](CCCCN)NC(=O)[C@H](C(C)O)NC(=O)[C@H](CC2CCCCC2)NC(=O)[C@H](CCN)NC1=O` (stereo partly drawn) [Compound 3668] ({CH2CO}-[Thr(3ξ)]Y(Carboxymethyl)DWV[Bip]Y[Orn][dL][Dab][Cha][Thr(3ξ)]KC[Dab][Aun]-OH; thioether N-14), the IC50 was 78.3 nM.
As for `CC(C)C[C@H]1NC(=O)[C@H](CCCN)NC(=O)[C@H](Cc2ccc(O)cc2)NC(=O)[C@H](Cc2ccc(-c3ccccc3)cc2)NC(=O)[C@H](Cc2ccc(O)cc2)NC(=O)[C@H](Cc2c[nH]c3ccccc23)NC(=O)[C@H](CC(=O)O)NC(=O)[C@H](Cc2ccc(OCC(=O)O)cc2)NC(=O)[C@H](C(C)O)NC(=O)CSC[C@@H](C(=O)N[C@@H](CCN)C(=O)NCCCCCCCCCCC(=O)O)NC(=O)[C@H](CN)NC(=O)[C@H](C(C)O)NC(=O)[C@H](CC2CCCCC2)NC(=O)[C@H](CCN)NC1=O` (stereo partly drawn) [Compound 3669] ({CH2CO}-[Thr(3ξ)]Y(Carboxymethyl)DWY[Bip]Y[Orn][dL][Dab][Cha][Thr(3ξ)][Dap]C[Dab][Aun]-OH; thioether N-14), the IC50 came out at 152 nM.
For the compound `CC(C)C[C@H]1NC(=O)[C@H](CCCN)NC(=O)[C@H](Cc2ccc(O)cc2)NC(=O)[C@H](Cc2ccc(-c3ccccc3)cc2)NC(=O)[C@H](Cc2ccc(O)cc2)NC(=O)[C@H](Cc2c[nH]c3ccccc23)NC(=O)[C@H](CC(=O)O)NC(=O)[C@H](Cc2ccc(OCC(=O)O)cc2)NC(=O)[C@H](C(C)O)NC(=O)CSC[C@@H](C(=O)N[C@@H](CCN)C(=O)NCCCCCCCCCCC(=O)O)NC(=O)[C@H](CCCCN)NC(=O)[C@H](C(C)O)NC(=O)[C@H](CC2CCCCC2)NC(=O)[C@H](CCN)NC1=O` (stereo partly drawn) [Compound 3670] ({CH2CO}-[Thr(3ξ)]Y(Carboxymethyl)DWY[Bip]Y[Orn][dL][Dab][Cha][Thr(3ξ)]KC[Dab][Aun]-OH; thioether N-14), the IC50 was 64.2 nM.
With `CC(C)C[C@@H]1NC(=O)[C@H](Cc2c[nH]c3ccccc23)NC(=O)[C@H](CC(=O)O)NC(=O)[C@H](Cc2ccc(OCC(=O)O)cc2)NC(=O)[C@H](C(C)O)NC(=O)CSC[C@@H](C(=O)N[C@@H](CCN)C(=O)NCCCCCCCCCCC(=O)O)NC(=O)[C@H](CN)NC(=O)[C@H](C(C)O)NC(=O)[C@H](CC2CCCCC2)NC(=O)[C@H](CCN)NC(=O)[C@@H](CC(C)C)NC(=O)[C@H](CCCN)NC(=O)[C@H](Cc2ccc(O)cc2)NC(=O)[C@H](Cc2ccc(-c3ccccc3)cc2)NC1=O` (stereo partly drawn) [Compound 3671] ({CH2CO}-[Thr(3ξ)]Y(Carboxymethyl)DWL[Bip]Y[Orn][dL][Dab][Cha][Thr(3ξ)][Dap]C[Dab][Aun]-OH; thioether N-14) the figure was 105 nM; with `Cc1cccc(C[C@@H]2NC(=O)[C@H](CC(=O)O)NC(=O)[C@H](Cc3ccc(OCC(=O)O)cc3)NC(=O)[C@H](CCN)NC(=O)CSC[C@@H](C(=O)N[C@@H](CCN)C(=O)NCCCCCCCCCCC(=O)O)NC(=O)[C@H](CO)NC(=O)[C@H](C(C)O)NC(=O)[C@H](CC3CCCCC3)NC(=O)[C@H](Cc3cnc[nH]3)NC(=O)[C@@H](CC(C)C)NC(=O)[C@H](CCCN)NC(=O)[C@H](Cc3ccc(OCC(=O)O)cc3)NC(=O)[C@H](Cc3ccc(-c4ccccc4)cc3)NC(=O)[C@H](Cc3ccc(OCC(=O)O)cc3)NC2=O)c1` (stereo partly drawn) [Compound 3672] ({CH2CO}-[Dab]Y(Carboxymethyl)D[Phe(3-Me)]Y(Carboxymethyl)[Bip]Y(Carboxymethyl)[Orn][dL]H[Cha][Thr(3ξ)]SC[Dab][Aun]-OH; thioether N-14), 20.7 nM; with `CC(C)C[C@H]1NC(=O)[C@H](CCCN)NC(=O)[C@H](C(C)C)NC(=O)[C@H](Cc2ccc(-c3ccccc3)cc2)NC(=O)[C@H](C(C)C)NC(=O)[C@H](Cc2c[nH]c3ccccc23)NC(=O)[C@H](CC(=O)O)NC(=O)[C@H](Cc2ccc(OCC(=O)O)cc2)NC(=O)[C@H](C(C)O)NC(=O)CSC[C@@H](C(=O)N[C@@H](CCN)C(=O)NCCCCCCCCCCC(=O)O)NC(=O)[C@H](CCCCN)NC(=O)[C@H](C(C)O)NC(=O)[C@H](CC2CCCCC2)NC(=O)[C@H](CCN)NC1=O` (stereo partly drawn) [Compound 3673] ({CH2CO}-[Thr(3ξ)]Y(Carboxymethyl)DWV[Bip]V[Orn][dL][Dab][Cha][Thr(3ξ)]KC[Dab][Aun]-OH; thioether N-14), 29.2 nM.
